In patent US5354746A, “Squaric acid derivatives of substituted dibenzoxazepine compounds, pharmaceutical compositions and methods of use” (G. D. Searle & Co., priority 1993, dated 1994):
Counter-ions that a name gives are not always drawn.

Columns and labels:
[1] = test system: prostaglandin E2-induced contractions of segments of guinea pig ileum; experiment: Prostaglandin (PGE) Antagonism Assay (inhibition of prostaglandin E2-induced contractions of guinea pig ileum segments); conditions: ratio of prostaglandin E2 EC50 with/without test compound; initial concentration 3 micromolar; 30 min incubation; 37° C.; active if dose ratio >= 2
Description: In order to determine the effectiveness of several of the compounds of the present invention ("test compounds") as prostaglandin E2 antagonists,a prostaglandin antagonism assay was conducted, as described below, to determine the ability of these compounds to inhibit prostaglandin E2 -induced contractions of segments of guinea pig ileum. […] Male albino guinea pigs weighing 200 to 500 grams were sacrificed by cervical dislocation. The ilea were then quickly removed from the guinea pigs and placed in a modified Tyrode solution, a solution which is known to those skilled in the art, containing one-half of the usual amount of magnesium ions. Segments of ileum about 2 cm long were then cut and mounted in a 10 mL tissue bath containing the modified Tyrode solution. The solution was maintained at 37° C. and aerated with a gaseous mixture of 95% oxygen and 5% carbon dioxide. Data for a control prostaglandin E2 dose response curve plotting concentration of prostaglandin E2 versus the intensity of contractions, detected isotonically, was then obtained by experimentally adjusting the dose of the prostaglandin E2 being injected into the tissue bath, in a manner known by those of skill in the art. Solutions or suspensions containing an initial concentration (3 micromolar) of a test compound in modified Tyrode solution ("test solutions/suspensions") were then separately substituted for the control bath solution. Each test solution/suspension was then kept in constant contact with the ileum tissue, except for brief periods to drain the bath in preparation for rinsing with fresh test solution/suspension. A second prostaglandin E2 dose response curve was then generated for prostaglandin E2 in the presence of a test compound. A control dose response curve is produced in isolated segments of guinea pig ileum mounted in an automated apparatus with six concentrations of prostaglandin E2. A solution or suspension of test compound is substituted for the control bathing solution and is incubated for thirty minutes. An additional prostaglandin E2 dose response curve is then performed in the presence of the test compound. A dose ratio is calculated from the EC50 values obtained from duplicate replications on each concentration of the test compound. […] A dose ratio of EC50 doses was calculated from the results of each test in a manner known by those of skill in the art, and described above. A test compound was determined to be "active" if the initial concentration used yielded at least a two-fold shift (dose ratio greater than or equal to 2) in the dose response curve for prostaglandin E2. The compounds of the present invention which were tested in this assay, and for which results are presented in Table 1, correspond to the particular examples specified in Table 1.

mice = experiment: Writhing Assay (PBQ-induced writhing, analgesic activity in mice); assay type: in vivo, mouse (Charles River male albino mice); conditions: for WRITHING ASSAY Number Out of Ten (number of mice out of ten in which a test compound produced analgesia): 30 mg per kilogram i.g., 30 min before PBQ i.p., writhes <= one-half median of saline control
Text: The Writhing Assay is one of the most widely-used experimental procedures for measuring the analgesic activity of different narcotic and nonnarcotic analgesic agents, and involves the continuous, chemically-induced pain of visceral origin to an animal, such as a mouse or rat. [Gyires et al., Arch. int. Pharmacodyn, 267, 131-140 (1984); […] al., Fed. Proc., 15, 494 (1956); Koster et al., Fed. Proc., 18, 412 (1959); and Witken et al., J. Pharmacol. exp. Ther., 133, 400-408 (1961).] Chemicals which may be used to induce this pain include phenylbenzoquinone (PBQ) and acetic acid. As a result of the chemical irritation to the animal, a characteristic stretching and writhing of the animal (dorsiflexion of the animal's back, extension of its hindlimbs and the strong contraction of its abdominal musculature) will generally occur. […] Drugs which reduce the number of writhes of the animal appear to restore the normal nociceptive threshold of the animal. […] Charles River male albino mice, weighing 20 to 30 grams, were used in this assay. Thirty minutes after intragastric administration to ten mice of 30 mg per kilogram of body weight of a compound of the present invention ("test compound"), […] of body weight of a 0.025% w/v solution of PBQ was injected intraperitoneally into each mouse. Ten mice which were given saline in place of a test compound of the invention were used as a control group. Five minutes later, each mouse was individually placed into a glass beaker for observation, and the number of writhes occurring during the following ten-minute period was counted. A test compound was considered to have produced analgesia in a mouse if, in accordance with the conditions set forth above, and under the test criteria employed for this assay, after the administration of 30 mg per kilogram of body weight of a compound of the present invention to the mouse, the number of writhes elicited by a mouse injected with PBQ was equal to, or less than, one-half the median number of writhes recorded for the saline-treated control group of mice that day, as described by Taber in "Predictive Value of Analgesic Assays in Mice and Rats," Advances in Biochemical Psychopharmacology, 8, 191 (1974). The results for the particular compounds of the present invention analyzed in this assay, and discussed in the examples identified below which correspond thereto, are presented in Table 1 hereinbelow as fractions under the heading "WRITHING ASSAY." The fractions indicate the number of mice out of ten in which a test compound produced analgesia. The standard initial screening dose of a test compound employed in this assay was […]. If this initial screening dose of the test compound produced analgesia in seven out of ten mice, then the effect of additional doses of the test compound on the writhing response was evaluated, and then the ED50 dose was generally calculated. (The slopes of the dose-response curves for all test compounds analyzed were compared as described by Tallarida and Murray, Manual of Pharmacologic Calculations, Page 11 (Springer Verlag, New York, 1981)). All ED50 doses calculated are also presented in Table 1 hereinbelow under the heading "WRITHING ASSAY," but as whole numbers.

SMILES | PGE ANTAGONISM IN GUINEA PIG ILEUM Dose Ratio [1] | WRITHING ASSAY Number Out of Ten (number of mice out of ten in which a test compound produced analgesia) (mice) | ED50 (mice; Mus musculus, po, intragastric, PBQ i.p., dose producing analgesia in 50% of the animals, read-out: WRITHING ASSAY ED50 Dose I.G.) [mg/kg]
CCN1CCN(c2c(N3Cc4ccccc4Oc4ccc(Cl)cc43)c(=O)c2=O)CC1 [Example 2, 3-(8-Chlorodibenz[b,f][1,4]oxazepin-10(! ! H)-yl)-4-(4-ethyl-1-piperazinyl)-3-cyclobutene-1,2-dione, monohydrochloride] | 5.0 ± 2.6 | 6/10 | –
CCOC(=O)C1CN(c2c(N3Cc4ccccc4Oc4ccc(Cl)cc43)c(=O)c2=O)CCN1c1ccccc1 (stereo not drawn) [Example 4, Ethyl 4-[2-(8-chlorodibenz[b,f][1,4]oxazepin-10(11H)-yl)-3,4-dioxo-1-cyclobuten-1-yl]-1-phenyl-2-piperazinecarboxylate] | – | 4/10 | –
CN(C)CCNc1c(N2Cc3ccccc3Oc3ccc(Cl)cc32)c(=O)c1=O.Cl [Example 6, 3-(8-Chlorodibenz[b,f][1,4]oxazepin-10(11H)-yl)-4-[[2-(dimethylamino)ethyl]amino]-3-cyclobutene-1,2-dione, hydrochloride] | 6.8 ± 4.5 | 6/10 | –
Cl.O=c1c(NCc2ccncc2)c(N2Cc3ccccc3Oc3ccc(Cl)cc32)c1=O [Example 7, 3-(8-Chlorodibenz[b,f][1,4]oxazepin-10(11H)-yl)-4-[(4-pyridinylmethyl)amino]-3-cyclobutene-1,2-dione, hydrochloride] | 22 ± 5 | – | 9.7
O=c1c(N2Cc3ccccc3Oc3ccc(Cl)cc32)c(N2Cc3ccccc3Oc3ccc(Cl)cc32)c1=O [Example 8, 3,4-bis[8-chlorodibenz[b,f][1,4]oxazepin-10(11H) -yl]-3-cyclobutene-1,2-dione] | 1.9 ± 0.9 | 6/10 | –
